Source: patent US9408851B2, “Compounds” (Glaxo Group Limited, priority 2004, dated 2016)

What was measured:
[1] = In vitro intrinsic clearance in microsomes, human; assay type: in vitro ADME; conditions: Assay 3, human female microsomes, 0.5 uM compound, 0.5 mg/mL protein, 37° C.; for microsomal CLint at 0.5 uM: pH 7.4
Experimental: (§1) Determination of In vitro Intrinsic Clearance in Microsomes
(§2) NADP regeneration buffer for use in incubations was prepared fresh on the assay day. It contained 7.8 mg glucose-6-phosphate (mono-sodium salt), 1.7 mg NADP and 6 Units glucose-6-phosphate dehydrogenase per 1 mL of 2% sodium bicarbonate. Microsomes (human, female; cynomolgus monkey, female; dog, female; rat, female) were prepared in pH7.4 phosphate buffer and contained 0.625 mg protein/mL. Unless stated, all subsequent steps were performed by a Tecan Genesis 150/8 RSP. A 1.25 mM stock solution of the compounds was prepared in Acetonitrile/water (1:1). 25 ul of the 1.25 mM stock solution was added to 600 ul of Acetonitrile/water (1:1) to give a 50 uM solution. For each species, the 50 uM solutions (10 uL) were added to microsomes (790 uL) in a microplate (Porvair, 96 deepwell, square). 400 uL of the microsomal solution containing the compound was transferred to a microplate (Porvair, 96 deepwell, round) and was pre-warmed at 37° C. for five minutes prior to initiation of incubations. All incubations were initiated by addition of 100 uL of
(§3) NADP regeneration system to the pre-warmed microsomes. The mixtures were incubated at 37° C. in a Techne heating block. Following 0, 3, 6, 12 and 30 minutes incubation, 20 uL aliquots were taken and added to 100 uL of acetonitrile containing internal standard.
(§4) For determination of the rate of metabolism, incubations were performed at a compound concentration of 0.5 uM and a protein concentration of 0.5 mg/mL. The concentration of solvent in the incubation was 0.5%.
(§5) Test compound concentrations were determined by LC/MS/MS; results were reported as analyte:internal standard peak area ratios.
(§6) The rate of disappearance was calculated by fitting a single exponential decay to the concentration-time curve using Excel and intrinsic clearance was calculated using the following formula: […]

[2] = biological target: T1, human recombinant oxytocin receptors (Homo sapiens, UniProt P30559); assay: Oxytocin binding assay ([3H]-oxytocin, CHO cell membranes); conditions: Assay 2, Ki from IC50 by Cheng and Prusoff
T1 construct: expressed in transfected cells; host or cells: membranes of CHO cells
T1 sequence (P30559 1-389): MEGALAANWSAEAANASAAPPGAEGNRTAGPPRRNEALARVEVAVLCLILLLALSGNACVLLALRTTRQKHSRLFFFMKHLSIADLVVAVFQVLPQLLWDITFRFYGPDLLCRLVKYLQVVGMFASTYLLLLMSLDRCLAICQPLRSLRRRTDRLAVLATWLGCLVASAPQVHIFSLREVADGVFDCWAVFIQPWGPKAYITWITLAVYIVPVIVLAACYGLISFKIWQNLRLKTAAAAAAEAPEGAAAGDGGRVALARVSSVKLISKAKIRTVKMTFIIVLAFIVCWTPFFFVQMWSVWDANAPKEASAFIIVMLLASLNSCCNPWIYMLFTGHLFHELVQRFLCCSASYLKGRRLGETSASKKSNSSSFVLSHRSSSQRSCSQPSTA
Experimental: Membranes were prepared from CHO cells expressing human recombinant oxytocin receptors. The membrane preparation was frozen in aliquots at −70° C. until used.
Membranes (˜50 ug) were incubated in 200 ul of assay buffer (50 mM Tris, 10 mM MgCl2, and 0.1% bovine serum albumin, pH 7.5) containing ˜2.4 nM of [3H]-oxytocin in the absence (total binding) or presence (non-specific binding) of 1 uM unlabeled oxytocin and increasing concentrations of the compounds in Examples 1 to 6 or comparator compounds. Incubations were performed at room temperature for 60 minutes. The reactions were stopped with 3 ml of ice cold buffer and filtered through Whatman GF/C filter paper presoaked in 0.3% polyethylenimine. The filters were washed 4 times with 3 ml buffer using a Brandel cell harvester. The filters were counted in 3 ml Ready Safe scintillation fluid (Beckman).
Specific binding represented approximately 90% of total binding.
IC50 values were determined from competition binding experiments using non-linear regression analysis (GraphPad) and converted to Ki using the method of Cheng and Prusoff, 1974. Data are reported as mean values.

[3] = In vitro intrinsic clearance in microsomes, dog; assay type: in vitro ADME; conditions: Assay 3, dog female microsomes, 0.5 uM compound, 0.5 mg/mL protein, 37° C.; for microsomal CLint at 0.5 uM: pH 7.4
Experimental: as §1, §2, §3, §4, §5, §6

[4] = In vitro intrinsic clearance in microsomes, rat; assay type: in vitro ADME; conditions: Assay 3, rat female microsomes, 0.5 uM compound, 0.5 mg/mL protein, 37° C.; for microsomal CLint at 0.5 uM: pH 7.4
Experimental: as §1, §2, §3, §4, §5, §6

[5] = biological target: T2, recombinant human Oxytocin-1 (hOT) receptor (Homo sapiens, UniProt P30559); assay: Antagonist affinity at human Oxytocin-1 receptors using FLIPR ([Ca2+]i); assay type: cell-based; conditions: Assay 1, CHO-hOT cells, oxytocin at EC80, read-out: fpKi
T2 construct: expressed in transfected cells
T2 sequence (P30559 1-389): T1 sequence (P30559 1-389)
Experimental: Determination of Antagonist Affinity at Human Oxytocin-1 Receptors using FLIPR
Adherent Chinese Hamster Ovary (CHO) cells, stably expressing the recombinant human Oxytocin-1 (hOT) receptor, were maintained in culture in DMEM:F12 medium (Sigma, cat no D6421), supplemented with 10% heat inactivated foetal calf serum
(Gibco/Invitrogen, cat. no. 01000-147), 2 mM L-glutamine (Gibco/Invitrogen, cat. no. 25030-024) and 0.2 mg/ml G418 (Gibco/Invitrogen, cat no. 10131-027). Cells were grown as monolayers under 95%:5% air:CO2 at 37° C. and passaged every 3-4 days using TrypLE™ Express (Gibco/Invitrogen, cat no. 12604-013).
Measurement of [Ca^2+]i using the FLIPR™
CHO-hOT cells were seeded into black walled clear-base 384-well plates (Nunc) at a density of 10,000 cells per well in culture medium as described above and maintained overnight (95%:5% air:CO2 at 37° C.). […] Cells were then incubated for an additional 30 min at 37° C. with either buffer alone or buffer containing OT antagonist, before being placed into a FLIPR™ (Molecular Devices, UK) to monitor cell fluorescence (λex=488 nm, λEM=540 nm) before and after the addition of a submaximal concentration of oxytocin (EC80).
Functional responses using FLIPR were analysed using Activity Base Version 5.0.10.

[6] = In vitro intrinsic clearance in microsomes, cynomolgus monkey; assay type: in vitro ADME; conditions: Assay 3, cynomolgus monkey female microsomes, 0.5 uM compound, 0.5 mg/mL protein, 37° C.; for microsomal CLint at 0.5 uM: pH 7.4
Experimental: as §1, §2, §3, §4, §5, §6

| SMILES | microsomal CLint at 0.5 uM [1] | Ki [2] | microsomal CLint at 0.5 uM [3] | microsomal CLint at 0.5 uM [4] | Ki [5] | microsomal CLint at 0.5 uM [6] | Microsomal Cl, Cynomolgus monkey [6] | Microsomal Cl, Human [1] | Microsomal Cl, Dog [3] | Microsomal Cl, Rat [4] |
| --- | --- | --- | --- | --- | --- | --- | --- | --- | --- | --- |
| Cc1ccc([C@H](C(=O)N(C)C)N2C(=O)[C@@H](C3Cc4ccccc4C3)NC(=O)[C@H]2CC(C)C)cn1 [Comparator X, (2R)-2-[(3R,6R)-3-(2,3-dihydro-1H-inden-2-yl)-6-isobutyl-2,5-dioxopiperazin-1-yl]-N,N-dimethyl-2-(6-methylpyridin-3-yl)ethanamide, reference compound] | 9 to 15 mL/min/g | 0.0316 to 1.58 nM | 1 to 8 mL/min/g | 1 to 8 mL/min/g | 0.631 to 7.94 nM |  |  |  |  |  |
| CC[C@H](C)[C@@H]1C(=O)N[C@H](C2Cc3ccccc3C2)C(=O)N1[C@@H](C(=O)NC)c1ccc(C)nc1C [Example 1, (2R)-2-{(3R,6R)-3-(2,3-Dihydro-1H-inden-2-yl)-6-[(1S)-1-methylpropyl]-2,5-dioxo-1-piperazinyl}-2-(2,6-dimethyl-3-pyridinyl)-N-methylethanamide] | 1 to 8 mL/min/g |  | 1 to 8 mL/min/g | 1 to 8 mL/min/g |  | 1 to 8 mL/min/g |  |  |  |  |
| CC[C@H](C)[C@@H]1C(=O)N[C@H](C2Cc3ccccc3C2)C(=O)N1[C@@H](C(=O)N(C)C)c1ccc(C)nc1C [Example 2, (2R)-2-{(3R,6R)-3-(2,3-Dihydro-1H-inden-2-yl)-6-[(1S)-1-methylpropyl]-2,5-dioxo-1-piperazinyl}-2-(2,6-dimethyl-3-pyridinyl)-N,N-dimethylethanamide] |  |  | 1 to 8 mL/min/g | 1 to 8 mL/min/g |  |  | ++, +++ | +, + |  |  |
| CC[C@H](C)[C@@H]1C(=O)N[C@H](C2Cc3ccccc3C2)C(=O)N1[C@@H](C(=O)N1CCOCC1)c1ccc(C)nc1C [Example 3, (3R,6R)-3-(2,3-dihydro-1H-inden-2-yl)-1-[(1R)-1-(2,6-dimethyl-3-pyridinyl)-2-(4-morpholinyl)-2-oxoethyl]-6-[(1S)-1-methylpropyl]-2,5-piperazinedione] | 1 to 8 mL/min/g |  | 1 to 8 mL/min/g | 1 to 8 mL/min/g |  | 1 to 8 mL/min/g |  |  |  |  |
| CC[C@H](C)[C@@H]1C(=O)N[C@H](C2Cc3ccccc3C2)C(=O)N1[C@@H](C(=O)N(C)C)c1cnc(C)cc1C [Example 4, (2R)-2-{(3R,6R)-3-(2,3-Dihydro-1H-inden-2-yl)-6-[(1S)-1-methylpropyl]-2,5-dioxo-1-piperazinyl}-2-(4,6-dimethyl-3-pyridinyl)-N,N-dimethylethanamide] |  |  |  |  |  |  | +++++, +++++ | ++, + | +, + | +, + |
| CC[C@H](C)[C@@H]1C(=O)N[C@H](C2Cc3ccccc3C2)C(=O)N1[C@@H](C(=O)NC)c1cnc(C)cc1C [Example 5, (2R)-2-{(3R,6R)-3-(2,3-Dihydro-1H-inden-2-yl)-6-[(1S)-1-methylpropyl]-2,5-dioxo-1-piperazinyl}-2-(4,6-dimethyl-3-pyridinyl)-N-methylethanamide] | 1 to 8 mL/min/g |  | 1 to 8 mL/min/g | 1 to 8 mL/min/g |  | 16 to 20 mL/min/g |  |  |  |  |
| CC[C@H](C)[C@@H]1C(=O)N[C@H](C2Cc3ccccc3C2)C(=O)N1[C@@H](C(=O)N1CCOCC1)c1cnc(C)cc1C [Example 6, (3R,6R)-3-(2,3-dihydro-1H-inden-2-yl)-1-[(1R)-1-(4,6-dimethyl-3-pyridinyl)-2-(4-morpholinyl)-2-oxoethyl]-6-[(1S)-1-methylpropyl]-2,5-piperazinedione] | 1 to 8 mL/min/g |  | 1 to 8 mL/min/g | 1 to 8 mL/min/g |  | 16 to 20 mL/min/g |  |  |  |  |
